Assay [1] addresses T1, Psychromonas marina CASDH (Psychromonas marina, UniProt A0ABQ6DYR2).
T1 sequence (A0ABQ6DYR2 1-405): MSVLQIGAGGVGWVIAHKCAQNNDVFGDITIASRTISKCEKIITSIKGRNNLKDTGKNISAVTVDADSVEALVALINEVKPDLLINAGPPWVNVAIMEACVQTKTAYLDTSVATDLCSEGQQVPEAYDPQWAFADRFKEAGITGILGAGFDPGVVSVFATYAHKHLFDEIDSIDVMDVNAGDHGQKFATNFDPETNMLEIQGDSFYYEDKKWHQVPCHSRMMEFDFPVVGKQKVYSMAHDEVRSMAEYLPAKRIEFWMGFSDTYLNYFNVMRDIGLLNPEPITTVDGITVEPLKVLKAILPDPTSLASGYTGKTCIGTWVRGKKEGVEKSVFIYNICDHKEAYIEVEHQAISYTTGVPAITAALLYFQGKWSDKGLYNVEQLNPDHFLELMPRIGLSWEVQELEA
Nature of the assay: LC-MS of benzoylated spermidine in E. coli extract. The conditions noted are these: endogenous putrescine, BL21speD, coexpressed with CASDC. The class given is cell-based.

The target of a further assay is T2, Brucella abortus CASDH (Brucella abortus, UniProt Q2YPK8).
T2 construct: gene BAB1_0364
The conditions noted are these: endogenous putrescine, BL21speD, coexpressed with CASDC.

The record followed here is paper PMC11999265, “New routes for spermine biosynthesis” (The Journal of Biological Chemistry, 2025).

In the case of `NCCCCN` [putrescine], the “LC-MS of benzoylated spermidine in E. coli extract” value (in assay [1]; at Brucella abortus CASDH) was “all CASDH/CASDC pairs were able to synthesize spermidine in the spermidine-void BL21speD cells” throughout.
